Measurements published in ChEMBL document CHEMBL2311407, “Design and synthesis of diazatricyclodecane agonists of the G-protein-coupled receptor 119” (J Med Chem, 2013).
≈ marks a conversion by molar mass, not a printed value.

Key:
[1] = Aqueous solubility of the compound in PBS at pH 7.4; type: physicochemical
[2] = Aqueous solubility of the compound in PBS at pH 1.2; type: physicochemical
[3] = Apparent intrinsic clearance in human liver microsomes; type: ADME, Microsome; conditions: read-out: CLH(app)

Row | solubility [1] [µg/mL] | solubility [2] [µg/mL] | CLint scaled [3] [mL/min/kg] | Compound
1 | 0.5 (≈ 0.00115 mM) | 6800 (≈ 15.6 mM) |  | Cc1ncccc1Oc1ncnc(N2C3CC4CC2CC(C3)N4C(=O)OC2(C)CC2)c1C
2 |  |  | > 30 | CC[C@H](C)OC(=O)N1C2CC3CC1CC(C2)N3c1ncnc(Oc2cccnc2C)c1C
3 |  |  | > 30 | Cc1ncccc1Oc1ncnc(N2C3CC4CC2CC(C3)N4C(=O)OCC(C)C)c1C
